{"source": "patent US4693998A", "about": "“Novel compounds of the muramyl peptide” (Agence Nationale de Valorisation de la Rechersche, priority 1978, dated 1987)", "key": {"[1]": {"test_system": "ovalbumin specific antibodies / delayed hypersensitivity", "test": "Adjuvant character in the presence of an oily phase (FIA): ovalbumin antibodies and delayed hypersensitivity", "type": "in vivo, Hartley guinea pigs", "conditions": "for Serum Antibodies / Cutaneous test (diameter in mm): guinea pigs; for Serum Antibodies: 0.1 mg in FIA emulsion with 1 mg ovalbumin, intradermal, day 21, nitrogen precipitatable by the antigen; for Cutaneous test (diameter in mm): 0.1 mg in FIA emulsion, 0.01 mg ovalbumin intradermal at day 18, read 48 hours later; for delayed hypersensitivity reaction / level of antibodies formed: administered in an oily emulsion", "method": "In these tests, the growth of the specific antibody level of a given antigen is followed when the latter is injected, with or without the adjuvant compound according to the invention, in a water in oil emulsion.\nThe tests were carried out on batches of 6 female Hartley guinea pigs of 350 g. The administration was done by intradermal injection into the plantar pad of each of the rear paws. The ovalbumin (constituting the antigen) at the dose of 1 mg is prepared in 0.1 ml of a saline isotonic solution emulsion, in an oily phase constituted by the Freund incomplete adjuvant (FIA). The compound according to the invention is administered at the dose of 0.1 mg added in the emulsion containing the FIA.\nAs previously, by way of comparison, a test was carried out with MDP in place of the product according to the invention.\nEighteen days after this immunization, possible reactions are sought of delayed hypersensitivity to the antigen by injecting by the intradermal route 0.01 mg of ovalbumin into the side of the animals, and there was observed, 48 hours later, the reaction at the point of injection. The diameter in millimeters of the reaction thus-caused was measured.\nTwenty-one days after the injection, the animals were bled. In the serum collected, the content is measured of specific antibodies of ovalbumin by precipitation of the antibody-antigen complex in the equivalence zone. The amount of protein nitrogen contained in this precipitate was estimated by the method of Folin. These values express the amount, in micrograms, of nitrogen precipitatable by the antigen, per […] of serum."}, "[2]": {"test_system": "bovine serum albumin (BSA) antibodies", "test": "Adjuvant character in the aqueous phase: anti-albumin antibodies by passive hemagglutination", "type": "in vivo, Swiss mice", "conditions": "for Antibody Titer Secondary Response / Antibody Titer Primary Response: Swiss mice, 100 μg s.c. with 0.5 mg BSA in isotonic saline; for Antibody Titer Secondary Response: after booster 0.1 mg BSA at 30 days; for Antibody Titer Primary Response: maximum serum dilution agglutinating; for level of antibodies formed: administered in isotonic saline solution", "method": "In this series of trials of which the results are indicated below, the influence of the active principle according to the invention on the level of anti-albumin antibodies under the following conditions, were studied.\nGroups of 8 Swiss mice aged two months received, by sub-cutaneous injection, 0.5 mg of antigen constituted by bovine serum albumin (BSA) with or without the tested substance in isotonic saline solution. This high dose of antigen, because it is situated at the limit of the paralysing dose with respect to the immune response, results for this reason, in a weak or nil response to the antigen alone in the controls; it therefore constitutes a severe criterion for establishing the activity of an adjuvant substance. Thirty days later, the mice received, by the same route of administration, a booster containing 0.1 mg of the same antigen.\nBy way of comparison, the adjuvant effect was studied simultaneously of 2-(2-acetamido-2-deoxy-3-O-D-glucopyranosyl)-D-propionyl-L-alanyl-D-isoglutamine (MDP) known for its adjuvant properties.\nThe antibody level is determined by passive hemagglutination using sheep's red blood cells treated with formalin and covered with the antigen studied according to the method described by A. A. HIRATA and M. W. BRANDISS (J. Immunol., 100, 641-648, 1968). Samples were taken respectively after the first injection of antigen and after injection of the booster to determine the primary and secondary responses.\nThe antibody titers express the maximum serum dilution agglutinating a given amount of sheep's red blood cells."}, "[3]": {"test": "Pyrogenicity: maximum temperature variation in rabbits during three hours after administration", "type": "in vivo, rabbit", "conditions": "three hours following administration", "method": "In the course of tests on rabbits, the maximum temperature variations during the three hours following administration were followed. For doses as high as 5 mg/kg or more of product, no significant variation in temperature is observed. Thus the average rise in temperature for administration to rabbits, for different esters of Mur-NAc-L-Ala-D-Gln is: […]"}, "[4]": {"test_system": "total blood", "test": "Influence on coagulation mechanisms: recalcification coagulation time after incubation with total blood", "type": "cell-based, rabbit", "conditions": "for coagulation time: 100 μg per 1 ml total blood; for effect on coagulation: contrary to LPS", "from_the_text": "It is known, from recent studies, that compounds having adjuvant properties like LPS can have side effects. Thus it has been observed in the rabbits that the administration of LPS has a tendency to shorten the coagulation time. The reasons for this phenomena are not fully known; nonetheless, it has seemed useful to determine the effect of the products according to the invention on coagulation under the same conditions.\nFor these tests, the test described by LERNER et col. in Thrombosis Research, Vol. 11, pp. 253-261, 1977, \"Endotoxin induced disseminated intravascular clotting: evidence that it is mediated by neutrophile production of tissue factor\", was used.\nThe total blood was divided into two portions of which one was centrifuged to obtain platelet-free plasma (PFP).\n1 ml of total blood was incubated in a plastic tube in the presence of 100 μg of the product to be tested.\nTubes were also prepared containing 0.1 ml of PFP to which every hour, from 0 to 5 hours, were added 0.1 ml of incubation mixture, then these were recalcified by 0.1 ml of 0.025M calcium chloride.\nThe coagulation time was noted and the pro-coagulating activity was deduced therefrom as a function of the shortening of the coagulation time with respect to the control, physiological water. The result was compared with that of a highly pro-coagulant reference standard, the LPS.\nThe coagulation times are expressed in seconds."}, "[5]": {"test_system": "Klebsiella pneumoniae", "test": "Anti-infection activity with respect to Klebsiella (mouse survival)", "type": "in vivo", "conditions": "for anti-infectious activity: higher percentage of survivors than control group", "from_the_text": "The testing procedure is described in the article CHEDID L. et col., Proc. Natl. Acad. Sci. USA 1977, 74: 2089.\nIt was shown that a dose of 1 to 2.10^4 Klebsiella pneumoniae, injected by the intramuscular route to mice, results in the progressive death of a considerable part, if not of the whole, of the animals in the week following inoculation. After eight days, the survival of the remaining animals is finally achieved.\nThe survival of groups of mice inoculated under the above-indicated conditions and treated by means of the products according to the invention, was followed.\nFor these tests, hybrid mice (C571B1/6×AKR)F1 raised at the INSTITUT PASTEUR were used, there mice being raised from strains coming from the C.N.R.S. breeding station at ORLEANS.\nInfection by Klebsiella pneumoniae, capsular type 2, biotype d, strain was effected with a 16 hour culture in medium for pneumococci (No. 53515, INSTITUT PASTEUR) was effected. The infecting dose was 2.10^4 Klebsiella; it was administered by the intramuscular route.\nThe administration of the tested product is effected by the intravenous route in 0.2 ml of apyrogenic physiological solution, the controls receiving the solution alone. It is carried out 24 hours before the inoculation."}, "[6]": {"conditions": "cited from earlier work"}, "[7]": {"conditions": "in vivo; cited from earlier work"}}}
{"molecule": "CC(=O)N[C@@H]1[C@@H](O[C@H](C)C(=O)N[C@@H](C)C(=O)N[C@H](CCC(=O)O)C(N)=O)[C@H](O)[C@@H](CO)O[C@H]1O", "note": "[MDP, 2-(2-acetamido-2-deoxy-3-O-D-glucopyranosyl)-D-propionyl-L-alanyl-D-isoglutamine, reference compound]", "values": [{"measurement": "Serum Antibodies", "setting": "[1]", "value": "5,000 μg/ml"}, {"measurement": "Cutaneous test (diameter in mm)", "setting": "[1]", "value": 15, "unit": "mm"}, {"measurement": "Antibody Titer Secondary Response", "setting": "[2]", "value": "300 ± 100"}, {"measurement": "Antibody Titer Primary Response", "setting": "[2]", "value": 50}]}
{"molecule": "COC(=O)[C@@H](CCC(N)=O)NC(=O)[C@H](C)NC(=O)[C@@H](C)O[C@H]1[C@H](O)[C@@H](CO)OC(O)[C@@H]1NC(C)=O", "note": "(stereo partly drawn) [Mur--NAc--L-Ala--D-Glu(NH2)--OCH3, Methyl ester of N-acetyl-muramyl-L-alanyl-D-glutamine]", "values": [{"measurement": "delayed hypersensitivity reaction", "setting": "[1]", "value": "induces a delayed hypersensitivity reaction"}, {"measurement": "level of antibodies formed", "setting": "[1]", "value": "very considerable increase in the level of antibodies formed"}, {"measurement": "Serum Antibodies", "setting": "[1]", "value": "6,000 μg/ml"}, {"measurement": "Cutaneous test (diameter in mm)", "setting": "[1]", "value": 17, "unit": "mm"}, {"measurement": "average rise in temperature", "setting": "[3]; at 5 mg/kg", "value": 0.53, "unit": "°C"}, {"measurement": "coagulation time", "setting": "[4]; incubation 0 h", "value": 125, "unit": "s"}, {"measurement": "coagulation time", "setting": "[4]; incubation 2 h", "value": 118, "unit": "s"}, {"measurement": "coagulation time", "setting": "[4]; incubation 3 h", "value": 109, "unit": "s"}, {"measurement": "coagulation time", "setting": "[4]; incubation 4 h", "value": 110, "unit": "s"}, {"measurement": "coagulation time", "setting": "[4]; incubation 5 h", "value": 104, "unit": "s"}, {"measurement": "effect on coagulation", "setting": "[4]", "value": "do not accelerate coagulation"}, {"measurement": "Antibody Titer Secondary Response", "setting": "[2]", "value": "500 ± 150"}, {"measurement": "Antibody Titer Primary Response", "setting": "[2]", "value": 100}, {"measurement": "level of antibodies formed", "setting": "[2]", "value": "considerable increase in the level of antibodies formed"}]}
{"molecule": "CCCCCCCCCCOC(=O)C(CCC(N)=O)NC(=O)C(C)NC(=O)C(C)OC1C(O)C(CO)OC(O)C1NC(C)=O", "note": "[decyl ester, n-decyl ester of N-acetyl-muramyl-L-alanyl-D-glutamine]", "values": [{"measurement": "anti-infectious activity", "setting": "[5]", "value": "anti-infectious activity"}, {"measurement": "average rise in temperature", "setting": "[3]; at 10 mg/kg", "value": 0.23, "unit": "°C"}]}
{"molecule": "CC(=O)N[C@H]1C(O)O[C@H](CO)[C@@H](O)[C@@H]1O[C@H](C)C(=O)N[C@@H](C)C(=O)N[C@H](CCC(N)=O)C(N)=O", "note": "(stereo partly drawn) [diamide of N-acetyl-muramyl-L-alanyl-D-glutamic acid]", "values": [{"measurement": "adjuvant activity compared with N-acetyl-muramyl-L-alanyl-D-isoglutamine", "setting": "[6]; in vivo", "value": "less active"}, {"measurement": "pyrogenicity", "setting": "[7]", "value": "very low level of pyrogenicity"}]}
{"molecule": "COC(=O)CC[C@@H](NC(=O)[C@H](C)NC(=O)C(C)O[C@H]1[C@H](O)[C@@H](CO)O[C@H](O)[C@@H]1NC(C)=O)C(=O)OC", "note": "(stereo partly drawn) [dimethyl ester of N-acetyl-muramyl-L-alanyl-D-glutamic acid]", "values": [{"measurement": "adjuvant activity in oil compared with γ-methylester of N-acetyl-muramyl-L-alanyl-D-isoglutamine", "setting": "[6]; in oil, ADAM et coll. 1976", "value": "lesser adjuvant activity in oil"}]}
{"molecule": "n-butyl ester of N-acetyl-muramyl-L-alanyl-D-glutamine [Mur--NAc--L-Ala--D-Glu(NH2)--OC4 H9]", "values": [{"measurement": "delayed hypersensitivity reaction", "setting": "[1]", "value": "induces a delayed hypersensitivity reaction"}, {"measurement": "level of antibodies formed", "setting": "[1]", "value": "very considerable increase in the level of antibodies formed"}, {"measurement": "Serum Antibodies", "setting": "[1]", "value": "2,000 μg/ml"}, {"measurement": "Cutaneous test (diameter in mm)", "setting": "[1]", "value": 8, "unit": "mm"}, {"measurement": "anti-infectious activity", "setting": "[5]", "value": "anti-infectious activity"}, {"measurement": "% Protection", "setting": "[5]; mice, 2.10^4 Klebsiella i.m., product i.v. 24 hours before inoculation", "value": 63, "unit": "%"}, {"measurement": "% Survival D3", "setting": "[5]; mice, 2.10^4 Klebsiella i.m., product i.v. 24 hours before inoculation, day 3", "value": 92, "unit": "%"}, {"measurement": "% Survival D5", "setting": "[5]; mice, 2.10^4 Klebsiella i.m., product i.v. 24 hours before inoculation, day 5", "value": 75, "unit": "%"}, {"measurement": "% Survival D10", "setting": "[5]; mice, 2.10^4 Klebsiella i.m., product i.v. 24 hours before inoculation, day 10", "value": 75, "unit": "%"}, {"measurement": "average rise in temperature", "setting": "[3]; at 10 mg/kg", "value": 0.30, "unit": "°C"}, {"measurement": "coagulation time", "setting": "[4]; incubation 0 h", "value": 129, "unit": "s"}, {"measurement": "coagulation time", "setting": "[4]; incubation 2 h", "value": 120, "unit": "s"}, {"measurement": "coagulation time", "setting": "[4]; incubation 3 h", "value": 122, "unit": "s"}, {"measurement": "coagulation time", "setting": "[4]; incubation 4 h", "value": 114, "unit": "s"}, {"measurement": "coagulation time", "setting": "[4]; incubation 5 h", "value": 108, "unit": "s"}, {"measurement": "effect on coagulation", "setting": "[4]", "value": "do not accelerate coagulation"}, {"measurement": "Antibody Titer Secondary Response", "setting": "[2]", "value": "600 ± 200"}, {"measurement": "Antibody Titer Primary Response", "setting": "[2]", "value": 12}, {"measurement": "level of antibodies formed", "setting": "[2]", "value": "considerable increase in the level of antibodies formed"}]}
